Test results as given in publication PMC12419922, “Myristoylated Cathelicidin-DM Fused With ANG1-7: A Novel Self-Assembling Antimicrobial Peptide for the Treatment and Mechanism of Diabetic Infected Wounds” (Journal of Diabetes Research, 2025).
Where no end group is shown, it is not given here. The star is where a group is joined. Myristoyl = CCCCCCCCCCCCCC(=O)*

Test system: HUVECs
Test: Transwell migration assay
Type: cell-based, human
Settings: HUVECs in HG + LPS; p < 0.01
Procedure: HUVECs (1 × 10^4 cells/well) were incubated in the upper chamber of an 8-μm pore size (Corning, New York) and placed into a 24-well plate for 16 h at 37°C with 5% CO2. Cells adhering to the top surface of the Transwell membrane were carefully removed using a cotton swab. Cells that had migrated to the bottom of the chamber were fixed with 4% paraformaldehyde for 30 min and stained with 0.1% CV for 20 min. Finally, the chambers were placed on slides and imaged using an inverted fluorescence microscope (ThermoFish EVOS, United States). The number of cells in five random fields of each chamber was counted to determine migration ability.

Substance: Myristoyl-SSRRKPCKGWLCKLKLRGGYTLIGSATNLNRPTYVRAGGGDRVYIHP (cysteines drawn unpaired) [MYR-DM-ANG1-7]
- number of cells passing through the chamber (Transwell): increased
